Test results: patent EP4268823A1, “COMPOUND FOR TREATING NEUROINFLAMMATION” (Universitätsklinikum Hamburg-Eppendorf, priority 2022, dated 2023)

How the values were obtained:
[1] = system: primary neuronal cultures; assay: Cytosolic calcium imaging of glutamate-exposed neuronal cultures; type: cell-based, mouse; details: UNC0642 pre-treatment plus ferroptosis inhibitor (ferrostatin-1)
Experimental: (§1) For primary cortical cultures pregnant C57BL/6J, or G9afl/fl;Snap25-Cre mice were euthanized. To ensure comparability between genotypes, only embryos from heterozygous breeding's were used. Brainstem tissue of each embryo for genotyping was reserved and cortices were isolated, dissociated and cells were plated at a density of 1 × 10^5 cells per 1 cm^2 on poly-D-lysine-coated wells (5 µM Sigma-Aldrich, cat. no. A-003-M). If not stated otherwise, cells were maintained in neurobasal plus medium (supplemented with B27 plus, penicillin, streptomycin and L-glutamine; Gibco, cat. no. A3582901) at 37°C, 5% CO^2 and a relative humidity of 98%, and treated with 1 µM cytarabine (Sigma-Aldrich, cat. no. BP383) at 1 day in vitro (div) to inhibit glial cell proliferation. If no cytarabine was applied cells were maintained in PNBM medium (supplemented with neural cell survival factor, gentamycin and L-glutamine; Lonza). Throughout, cultures after 14-23 div were used for experiments. G9a inhibitor UNC0642 was used in a concentration of 1 µM and cultures were pre-treated 24 hours before further experimental procedures.
Primary neuronal cultures were seeded on Ibidi 60 µ-Dish Quad (cat. No. 80411) plates. Cultures were infected with an AAV7 containing pAAV-Syn-GCamp6f-WPRE-SV40 (86) (Addgene 100837) at 7-10 div with a 20,000-fold multiplicity of infection (MOI). AAV particles were produced according to the standard procedures of the UKE vector facility. Images were acquired with a confocal LSM 700 laser scanning confocal microscope (Zeiss) every 0.48 seconds with a 20× magnification in an imaging chamber maintaining 37 °C and 5% CO2. Infected cultures were imaged in the respective culture medium. Before applying the indicated chemicals, 5-10 min of baseline activity was first recorded. At the end of the recording, 8 µM ionomycin was applied to induce the maximum cellular calcium response that was used for normalization. For data analysis, mean fluorescence values of every cell were measured using Fiji software (NIH) and normalized to the maximal calcium response after ionomycin challenge. For each cell, mean AUC of the calcium response was calculated using a custom R script.

primary neurons = assay: Cell death induction, dead neurons with CellTox green reagent; type: cell-based, mouse; details: 1 µM UNC0642 pre-treated 24 hours
Experimental: as §1
Primary neurons were subjected to dedicated compounds initiating either apoptosis (stauro-sporine), necroptosis (TNF-α + LCL-161 + Z-VAD-FMK, or shikonin), or ferroptosis (RSL3, or erastin) for 48 h in G9afl/fl;Snap25-Cre cultures, or cultures pre-treated for 24 hours with 1 µM UNC0642. Together with the cell death inducing compounds, CellToxTM Green Cytotoxicity Assay (Promega) was added to primary neurons 1:2000. Before fixation with 4% paraformaldehyde, cells were counterstained with Hoechst […]. Neurons were imaged on a Zeiss LSM 700 confocal microscope using 20× magnification.

## COc1cc2c(NC3CCN(C(C)C)CC3)nc(N3CCC(F)(F)CC3)nc2cc1OCCCN1CCCC1 [UNC0642, 2-(4,4-difluoropiperidin-1-yl)-6-methoxy-N-[1-(propan-2-yl)piperidin-4-yl]-7-[3-(pyrrolidin-1-yl)propoxy]quinazolin-4-amine]
[1]
  potentiation of rescue effects of ferroptosis inhibition on glutamate-induced calcium overload: did not further potentiate the rescue effects of ferroptosis inhibition
Primary neurons; 48 h inducer
  ferroptosis (dead neurons) induced by RSL3: substantially rescued
  ferroptosis (dead neurons) induced by erastin: substantially rescued
Primary neurons; TNF-α + LCL-161 + Z-VAD-FMK, or shikonin, 48 h
  necroptosis (dead neurons): neither apoptosis nor necroptosis was affected
Primary neurons; staurosporine 48 h
  apoptosis (dead neurons): neither apoptosis nor necroptosis was affected
